Reference: ChEMBL document CHEMBL1165880, “'On water' assisted synthesis and biological evaluation of nitrogen and sulfur containing hetero-1,4-naphthoquinones as potent antifungal and antibacterial agents” (2010)
Converted amounts (≈) assume the structure as drawn. The source made the active and inactive calls. No cut-off for these calls is given here.

How the values were obtained:
Pseudomonas aeruginosa = test: Antibacterial activity against Pseudomonas aeruginosa […] at 50 ug/ml after 24 hrs by micro broth dilution method; format: functional, organism-based
Aspergillus fumigatus = test: Antifungal activity against Aspergillus fumigatus after 72 hrs by micro broth dilution method; format: functional
Escherichia coli = test: Antibacterial activity against Escherichia coli after 24 hrs by micro broth dilution method; format: functional
Cryptococcus neoformans = test: Antifungal activity against Cryptococcus neoformans after 72 hrs by micro broth dilution method; format: functional
Staphylococcus aureus = test: Antibacterial activity against Staphylococcus aureus ATCC 25923 after 24 hrs by micro broth dilution method; format: functional
Candida parapsilosis = test: Antifungal activity against Candida parapsilosis ATCC 22019 after 48 hrs by micro broth dilution method; format: functional
Candida albicans = test: Antifungal activity against Candida albicans after 48 hrs by micro broth dilution method; format: functional
[1] = tested on: Trichophyton mentagrophytes; test: Antifungal activity against Trichophyton mentagrophytes after 96 hrs by micro broth dilution method; format: functional
Klebsiella pneumoniae = test: Antibacterial activity against Klebsiella pneumoniae ATCC 27736 after 24 hrs by micro broth dilution method; format: functional

Row | Compound | Activity (Pseudomonas aeruginosa) | MIC50 (Aspergillus fumigatus) | MIC50 (Escherichia coli) | MIC50 (Cryptococcus neoformans) | MIC50 (Staphylococcus aureus) | MIC50 (Candida parapsilosis) | MIC50 (Candida albicans) | MIC50 [1] | MIC50 (Klebsiella pneumoniae)
1 | O=C(O)CC(SC1=C(Cl)C(=O)c2ccccc2C1=O)C(=O)O (stereo not drawn) | inactive | 147 µM (≈ 50 µg/mL) | 36.7 µM (≈ 12.5 µg/mL) | 147 µM (≈ 50 µg/mL) | 147 µM (≈ 50 µg/mL) | 147 µM (≈ 50 µg/mL) | > 147 µM | 36.7 µM (≈ 12.5 µg/mL) | 4.58 µM (≈ 1.56 µg/mL)
2 | GENTAMICIN |  |  | 0.38 µM |  | 1.63 µM |  |  |  | 0.82 µM
3 | NYSTATIN |  |  |  | 3.78 µM |  |  | 8.42 µM |  | 
4 | O=C1C=C(N2CCCC2)C(=O)c2c(O)ccc(O)c21 | inactive | > 193 µM | 193 µM (≈ 50 µg/mL) | > 193 µM | 193 µM (≈ 50 µg/mL) | > 193 µM | > 193 µM | 96.4 µM (≈ 25 µg/mL) | 193 µM (≈ 50 µg/mL)
5 | Clc1ccc(COC(Cn2ccnc2)c2ccc(Cl)cc2Cl)c(Cl)c1 (stereo not drawn) [MICONAZOLE] |  | 30 µM (≈ 12.5 µg/mL) |  | 30 µM (≈ 12.5 µg/mL) |  |  | 60.1 µM (≈ 25 µg/mL) | < 1.87 µM | 
6 | C=CCNC1=C(Cl)C(=O)c2ccccc2C1=O | inactive | 101 µM (≈ 25 µg/mL) | 101 µM (≈ 25 µg/mL) | 50.5 µM (≈ 12.5 µg/mL) | 101 µM (≈ 25 µg/mL) | 50.5 µM (≈ 12.5 µg/mL) | 50.5 µM (≈ 12.5 µg/mL) | 3.15 µM (≈ 0.78 µg/mL) | 25.2 µM (≈ 6.25 µg/mL)
7 | COC(=O)CSC1=C(Cl)C(=O)c2ccccc2C1=O | inactive | 168 µM (≈ 50 µg/mL) | 42.1 µM (≈ 12.5 µg/mL) | 168 µM (≈ 50 µg/mL) | 42.1 µM (≈ 12.5 µg/mL) | 168 µM (≈ 50 µg/mL) | > 168 µM | 42.1 µM (≈ 12.5 µg/mL) | 42.1 µM (≈ 12.5 µg/mL)
8 | NCC[C@H](O)C(=O)N[C@@H]1C[C@H](N)[C@@H](O[C@H]2O[C@H](CN)[C@@H](O)[C@H](O)[C@H]2O)[C@H](O)[C@H]1O[C@H]1O[C@H](CO)[C@@H](O)[C@H](N)[C@H]1O [AMIKACIN] |  |  | 1.71 µM (≈ 1 µg/mL) |  | 27.3 µM (≈ 16 µg/mL) |  |  |  | 1.71 µM (≈ 1 µg/mL)
9 | O=C1C(Cl)=C(N2CCCC2)C(=O)c2ccccc21 | inactive | 95.4 µM (≈ 25 µg/mL) | 47.7 µM (≈ 12.5 µg/mL) | 23.9 µM (≈ 6.24 µg/mL) | 95.4 µM (≈ 25 µg/mL) | 23.9 µM (≈ 6.24 µg/mL) | 11.9 µM (≈ 3.11 µg/mL) | 1.49 µM (≈ 0.39 µg/mL) | 95.4 µM (≈ 25 µg/mL)
10 | OC(Cn1cncn1)(Cn1cncn1)c1ccc(F)cc1F [FLUCONAZOLE] |  |  |  | 1.63 µM (≈ 0.499 µg/mL) |  | 3.26 µM (≈ 0.998 µg/mL) | 3.26 µM (≈ 0.998 µg/mL) | 5.09 µM (≈ 1.56 µg/mL) | 
11 | CCOC(=O)C(C)SC1=C(Cl)C(=O)c2ccccc2C1=O (stereo not drawn) |  | > 154 µM | 38.5 µM (≈ 12.5 µg/mL) | 38.5 µM (≈ 12.5 µg/mL) | 38.5 µM (≈ 12.5 µg/mL) | > 154 µM | > 154 µM | > 154 µM | 154 µM (≈ 50 µg/mL)
12 | O=C1C(Cl)=C(N2CCCCC2)C(=O)c2ccccc21 | inactive | 90.7 µM (≈ 25 µg/mL) | 43.4 µM (≈ 12 µg/mL) | 22.7 µM (≈ 6.26 µg/mL) | 90.7 µM (≈ 25 µg/mL) | 11.3 µM (≈ 3.12 µg/mL) | 5.66 µM (≈ 1.56 µg/mL) | 1.42 µM (≈ 0.392 µg/mL) | 90.7 µM (≈ 25 µg/mL)
